These results are taken from ChEMBL document CHEMBL2007661, “Compounds: GSK PKIS; Assays: UNC Frye lab” (2012).

The target of experiment [1] is T1, Inhibitor of nuclear factor kappa-B kinase subunit epsilon (Homo sapiens) (UniProt Q14164).
T1 sequence (whole entry): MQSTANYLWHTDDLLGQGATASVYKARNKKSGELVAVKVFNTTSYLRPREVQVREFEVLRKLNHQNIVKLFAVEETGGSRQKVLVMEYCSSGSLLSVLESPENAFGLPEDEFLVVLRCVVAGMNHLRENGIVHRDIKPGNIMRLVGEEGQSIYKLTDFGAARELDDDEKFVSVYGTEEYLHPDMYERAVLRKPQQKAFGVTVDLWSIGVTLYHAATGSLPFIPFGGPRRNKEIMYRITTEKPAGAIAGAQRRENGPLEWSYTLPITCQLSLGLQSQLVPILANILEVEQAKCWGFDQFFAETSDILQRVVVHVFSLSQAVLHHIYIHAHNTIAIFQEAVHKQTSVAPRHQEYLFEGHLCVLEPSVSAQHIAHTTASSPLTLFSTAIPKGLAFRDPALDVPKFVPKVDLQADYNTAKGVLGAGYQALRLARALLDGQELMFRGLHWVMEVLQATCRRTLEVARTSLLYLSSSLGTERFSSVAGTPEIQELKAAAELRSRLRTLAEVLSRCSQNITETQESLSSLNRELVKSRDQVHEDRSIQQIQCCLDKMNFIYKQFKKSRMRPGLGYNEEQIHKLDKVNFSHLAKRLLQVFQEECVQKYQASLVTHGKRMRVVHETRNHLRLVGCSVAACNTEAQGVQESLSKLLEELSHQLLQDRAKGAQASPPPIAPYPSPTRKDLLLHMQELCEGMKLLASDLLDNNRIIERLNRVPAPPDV
Conditions: at 1 µM.

Experiment [2] addresses T2, Inhibitor of nuclear factor kappa-B kinase subunit beta (Homo sapiens) (UniProt O14920).
T2 sequence (whole entry): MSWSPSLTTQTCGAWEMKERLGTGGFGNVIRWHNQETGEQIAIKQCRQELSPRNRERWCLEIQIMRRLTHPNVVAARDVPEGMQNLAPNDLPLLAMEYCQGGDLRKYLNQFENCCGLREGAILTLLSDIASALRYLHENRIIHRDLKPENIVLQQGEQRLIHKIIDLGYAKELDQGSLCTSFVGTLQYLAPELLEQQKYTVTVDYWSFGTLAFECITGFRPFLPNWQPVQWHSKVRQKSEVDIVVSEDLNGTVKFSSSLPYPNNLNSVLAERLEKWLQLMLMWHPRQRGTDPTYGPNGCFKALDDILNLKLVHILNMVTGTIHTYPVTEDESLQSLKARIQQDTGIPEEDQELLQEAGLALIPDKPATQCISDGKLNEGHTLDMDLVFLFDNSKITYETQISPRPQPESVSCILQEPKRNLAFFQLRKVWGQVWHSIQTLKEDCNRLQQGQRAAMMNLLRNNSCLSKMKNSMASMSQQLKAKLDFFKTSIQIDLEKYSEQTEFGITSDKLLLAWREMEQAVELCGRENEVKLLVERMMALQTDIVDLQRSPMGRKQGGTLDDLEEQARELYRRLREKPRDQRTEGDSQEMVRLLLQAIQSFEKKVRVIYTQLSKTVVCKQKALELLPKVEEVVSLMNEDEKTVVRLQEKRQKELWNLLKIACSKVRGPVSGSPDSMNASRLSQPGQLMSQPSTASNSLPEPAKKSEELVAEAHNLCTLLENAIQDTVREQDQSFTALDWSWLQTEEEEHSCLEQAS
Conditions: at 1 µM.

The target of experiment [3] is T3, Tyrosine-protein kinase Mer (Homo sapiens) (UniProt Q12866).
T3 sequence (whole entry): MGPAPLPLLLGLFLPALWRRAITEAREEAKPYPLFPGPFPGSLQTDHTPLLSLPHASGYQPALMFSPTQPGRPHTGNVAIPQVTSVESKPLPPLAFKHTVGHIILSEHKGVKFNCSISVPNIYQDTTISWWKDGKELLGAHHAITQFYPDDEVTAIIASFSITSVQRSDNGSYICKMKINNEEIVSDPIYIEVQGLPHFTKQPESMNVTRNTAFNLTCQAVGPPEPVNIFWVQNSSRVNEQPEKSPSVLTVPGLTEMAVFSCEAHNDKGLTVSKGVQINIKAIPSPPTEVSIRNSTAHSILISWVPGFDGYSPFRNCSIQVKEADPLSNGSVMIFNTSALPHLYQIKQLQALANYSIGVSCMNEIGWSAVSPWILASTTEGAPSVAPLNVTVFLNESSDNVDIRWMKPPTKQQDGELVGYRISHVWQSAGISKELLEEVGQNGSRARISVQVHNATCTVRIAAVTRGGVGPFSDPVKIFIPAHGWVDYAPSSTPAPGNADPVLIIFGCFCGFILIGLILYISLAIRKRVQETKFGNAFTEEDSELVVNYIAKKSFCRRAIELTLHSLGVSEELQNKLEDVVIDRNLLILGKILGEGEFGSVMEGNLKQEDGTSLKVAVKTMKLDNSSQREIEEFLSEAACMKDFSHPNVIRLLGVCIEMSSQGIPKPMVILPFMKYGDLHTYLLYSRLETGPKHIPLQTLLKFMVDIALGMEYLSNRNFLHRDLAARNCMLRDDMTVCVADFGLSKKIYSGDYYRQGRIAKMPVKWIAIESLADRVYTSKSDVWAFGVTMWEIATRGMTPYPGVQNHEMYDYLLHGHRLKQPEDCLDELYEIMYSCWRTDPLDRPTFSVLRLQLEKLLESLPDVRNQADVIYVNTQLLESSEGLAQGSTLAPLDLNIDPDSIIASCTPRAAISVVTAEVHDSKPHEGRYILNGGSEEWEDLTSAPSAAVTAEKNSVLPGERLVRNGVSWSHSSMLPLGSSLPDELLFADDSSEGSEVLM
To be noted: at 10 µM.

“And” between values parts separate entries of the source, which are not always exact repeats. Identical values can stand only once.

`CN1CCN(CCCNc2nc3ccc(Oc4ccc(NC(=O)Nc5cc(C(F)(F)F)ccc5F)cc4)cc3[nH]2)CC1`: the inhibition is -2% in experiment [1], -5% in experiment [2] and -1% in experiment [3].
With `CCOc1ccc2c(-c3ccnc(Nc4cccc(C(F)(F)F)c4)n3)cnn2n1`, the inhibition in experiment [1] was 45%; in experiment [2], -3% and -6%; in experiment [3] it was -2%.
In the case of `CCn1c(-c2nonc2N)nc2c(C#CC(C)(C)O)nc(O[C@@H](CN)c3ccccc3)cc21`, the inhibition in experiment [1] was 99% and 98%; in experiment [2], -3% and -4%; in experiment [3] it was -9%.
With `O=C1NC(=O)C(c2cccc(Cl)c2)=C1Nc1ccc(O)c(Cl)c1`, the inhibition in experiment [1] was 16% and 15%; in experiment [2], -6% and -9%; in experiment [3], 99%.
For the compound `CCCNc1cccc(-n2ncc3c(N/N=C/c4ccncc4)ncnc32)c1`, the inhibition in experiment [1] is 9% and 10%; in experiment [2], -3% and -2%; in experiment [3], 1%.
In the case of `COc1cccc(COc2cc(-n3cnc4ccccc43)sc2C(N)=O)c1`, the inhibition in experiment [1] was -1%; in experiment [2], -5% and -4%; in experiment [3], 1%.
Consider `COc1cc2ncn(-c3cc(OCc4cccs4)c(C(N)=O)s3)c2cc1OC`, for which the inhibition in experiment [1] is 1%; in experiment [2], -5% and -6%; in experiment [3], 4%.
Turning to `COc1ccccc1Nc1ncc(-c2ccccc2)o1`, the inhibition is 5% in experiment [1]; 3% and 0% in experiment [2]; 3% in experiment [3].
Consider `O=C1Nc2ccc(C(=O)c3ccco3)cc2C1=Cc1cc(Cl)c(O)c(Cl)c1`, for which the inhibition was 92% and 91% in experiment [1]; -8% and -7% in experiment [2]; -1% in experiment [3].
As for `CS(=O)(=O)CCNCc1cc(-c2cc3c(Nc4ccc(OCc5cccc(F)c5)c(Cl)c4)ncnc3s2)cs1`, the inhibition was 0% and 2% in experiment [1]; -8% and 5% in experiment [2]; -5% in experiment [3].
With `Cc1cc(O)cc(C)c1/C=C/c1cncc(C(N)=O)c1`, the inhibition in experiment [1] is -2%; in experiment [2] it was -5% and -4%; in experiment [3], -6%.
`CC(=O)Nc1cccc(C#Cc2cncnc2Nc2ccc(OCc3cccc(F)c3)c(Cl)c2)c1`: the inhibition in experiment [1] was -7% and -6%; in experiment [2], -2% and 0%; in experiment [3], -1%.
Consider `N#Cc1ccc(Oc2nccc(-c3c(-c4ccc(F)cc4)ncn3C3CCNCC3)n2)cc1`, for which the inhibition was 2% and 4% in experiment [1]; -2% and -1% in experiment [2]; -1% in experiment [3].
Take `NS(=O)(=O)c1ccc(NC=C2C(=O)Nc3ccc4ncsc4c32)cc1`: the inhibition in experiment [1] is 85%; in experiment [2], -3% and -2%; in experiment [3], -5%.
`CCn1c(-c2nonc2N)nc2cncc(C(=O)NCCNC)c21`: the inhibition in experiment [1] is 13% and 14%; in experiment [2], 1% and -2%; in experiment [3] it was 81%.
Turning to `CC(=O)NCc1cccc(C#Cc2cncnc2Nc2ccc(OCc3cccc(F)c3)c(Cl)c2)c1`, the inhibition in experiment [1] is -4%; in experiment [2], -3% and -4%; in experiment [3], -7%.
As to `CCCN1CCCC(c2ccc(Nc3nc(Nc4cc(F)ccc4C(N)=O)c4cc[nH]c4n3)c(OC)c2)C1` (centres undefined), the inhibition was 11% and 9% in experiment [1]; -1% and 1% in experiment [2]; 5% in experiment [3].
In the case of `COc1ccc(CNC(=O)c2ccc(-c3cc(-c4nnc(C)o4)ccc3C)cc2)cc1`, the inhibition in experiment [1] is -3%; in experiment [2], -2% and -3%; in experiment [3], 3%.
On to `CCN(CC)S(=O)(=O)c1ccc(OC)c(Nc2ncc(-c3ccccc3)o2)c1`, for which the inhibition in experiment [1] is 2% and 3%; in experiment [2] it was -1% and 2%; in experiment [3], 13%.
`N#Cc1c(NC(=O)c2ccccc2F)sc2c1CCCC2`: the inhibition in experiment [1] was 1% and 4%; in experiment [2] it was 1% and 0%; in experiment [3], -6%.
As to `N#Cc1ccc2c(-c3ccnc(NC4CC4)n3)c(-c3ccc(F)cc3)nn2c1`, the inhibition is 1% in experiment [1]; 4% and -1% in experiment [2]; 24% in experiment [3].
For `COc1ccc2cc(-c3c(-c4ccncc4)nc(-c4ccc(S(C)(=O)=O)cc4C)n3C)ccc2c1`, the inhibition in experiment [1] was 1% and 2%; in experiment [2] it was -2%; in experiment [3], 0%.
As to `Fc1ccc(-c2c(-c3ccncc3)nc3n2CCS3)cc1`, the inhibition in experiment [1] is -1% and 0%; in experiment [2], 0% and -2%; in experiment [3] it was 10%.
For the compound `CCn1c(-c2nonc2N)nc2c(C#CC(C)(C)O)nc(CN3CCCC3)cc21`, the inhibition in experiment [1] is 52% and 51%; in experiment [2] it was -3% and 3%; in experiment [3], -6%.
As for `COc1cccc(-n2ncc3c(N/N=C/c4ccc(C(=O)NCCN(C)C)cc4)ncnc32)c1`, the inhibition is 29% and 27% in experiment [1]; -5% and -6% in experiment [2]; 49% in experiment [3].
Consider `COc1cccc(-n2ncc3c(N/N=C/c4ccncc4)ncnc32)c1`, for which the inhibition in experiment [1] was 6% and 4%; in experiment [2], -2%; in experiment [3], 84%.
With `NS(=O)(=O)c1cccc(-c2cc3ccncc3cc2OCc2ccccc2)c1`, the inhibition in experiment [1] is -3% and -1%; in experiment [2], -4% and 2%; in experiment [3], 74%.
Turning to `O=C1Nc2ccccc2/C1=C1\CCc2cc(O)ccc21`, the inhibition in experiment [1] is 13%; in experiment [2], -3% and -4%; in experiment [3], 7%.
Consider `ON=C1CCc2cc(-c3nc(C4CCNCC4)[nH]c3-c3ccncc3)ccc21`, for which the inhibition in experiment [1] is 1% and 4%; in experiment [2], 6% and 3%; in experiment [3] it was 38%.
For `Nc1ccc(C#Cc2cncnc2Nc2ccc(OCc3cccc(F)c3)c(Cl)c2)cc1`, the inhibition in experiment [1] was -2% and 0%; in experiment [2] it was 7% and -3%; in experiment [3], 58%.
Take `Cc1nnc(-c2ccc(C)c(-c3ccc(C(=O)NCc4ccc(Cl)cc4)cc3)c2)o1`: the inhibition in experiment [1] is 2%; in experiment [2], -2% and 0%; in experiment [3], 92%.
As to `O=C1NC(=O)C(c2ccccc2Cl)=C1Nc1cccc(O)c1`, the inhibition is 1% and 3% in experiment [1]; -6% and -2% in experiment [2]; 18% in experiment [3].
For the compound `Cc1cc(O)cc(C)c1/C=C/c1cncc(-c2nn[nH]n2)c1`, the inhibition in experiment [1] is 2%; in experiment [2], -4% and -5%; in experiment [3] it was -2%.
